The values below come from patent publication US12503438B2, “Compounds for the treatment of kinase-dependent disorders” (Exelixis, Inc., priority 2019, dated 2025).

Where only a bound is given, the exact number is not on record here.

The assay addresses T1, Mer (Homo sapiens, UniProt Q12866).
T1 construct: host or cells: 293A cells (Thermo Fisher #R70507)
T1 sequence (Q12866 21-999): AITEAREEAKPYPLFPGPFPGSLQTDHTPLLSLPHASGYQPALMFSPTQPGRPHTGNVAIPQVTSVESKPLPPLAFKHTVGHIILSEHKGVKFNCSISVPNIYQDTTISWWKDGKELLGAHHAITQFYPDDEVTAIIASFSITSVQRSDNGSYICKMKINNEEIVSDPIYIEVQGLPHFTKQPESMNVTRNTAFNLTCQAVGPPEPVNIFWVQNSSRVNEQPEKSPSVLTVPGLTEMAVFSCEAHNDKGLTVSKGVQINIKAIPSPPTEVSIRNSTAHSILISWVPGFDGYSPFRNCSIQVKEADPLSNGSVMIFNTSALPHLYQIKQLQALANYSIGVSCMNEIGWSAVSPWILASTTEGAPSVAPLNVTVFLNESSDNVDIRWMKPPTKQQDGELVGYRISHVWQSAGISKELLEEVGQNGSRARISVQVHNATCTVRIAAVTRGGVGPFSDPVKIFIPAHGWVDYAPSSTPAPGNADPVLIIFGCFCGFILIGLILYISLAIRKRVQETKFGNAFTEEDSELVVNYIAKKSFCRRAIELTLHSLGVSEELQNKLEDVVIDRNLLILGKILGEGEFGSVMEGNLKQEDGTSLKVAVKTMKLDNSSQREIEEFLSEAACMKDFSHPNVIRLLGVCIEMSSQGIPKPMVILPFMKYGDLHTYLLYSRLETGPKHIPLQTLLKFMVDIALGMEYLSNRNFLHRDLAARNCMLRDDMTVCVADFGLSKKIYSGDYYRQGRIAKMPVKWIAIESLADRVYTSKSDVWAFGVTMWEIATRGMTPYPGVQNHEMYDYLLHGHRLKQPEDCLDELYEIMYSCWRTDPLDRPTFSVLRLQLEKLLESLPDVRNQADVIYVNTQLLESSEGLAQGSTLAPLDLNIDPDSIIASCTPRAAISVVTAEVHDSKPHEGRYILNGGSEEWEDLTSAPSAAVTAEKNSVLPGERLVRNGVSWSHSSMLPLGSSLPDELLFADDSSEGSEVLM
In words: Mer autophosphorylation ELISA in transient transfected 293A cells. It is filed as cell-based. As to conditions: cellular activity; MERTK-transfected 293A cells, phospho-Mer ELISA. The protocol: 293A cells (Thermo Fisher #R70507) were seeded at 1.5×10^6 cells/well onto 100 mm dish (Greiner #664169), in DMEM (Thermo Fisher #11995-040) containing 10% FBS (Thermo Fisher #26140-079), 1% MEM NEAA (Thermo Fisher #11140-050), 1% GlutaMax (Thermo Fisher #35050-061), and 1% Penicillin Streptomycin (Thermo Fisher #15140-122). 293A cells were incubated at 37° C., 5% CO2 for 24 h and then transfected with 6 μg MERTK DNA (Genecopoeia #EX-Z8208-M02) using TransIT LT1 transfection reagent (Mirus-Bio #MIR2305). After 24 h incubation, the transfected 293A cells were seeded at 1×10^5 cells/well onto 96-well plates (Corning #3904) in DMEM growth medium overnight. Test compounds were serially diluted to produce an 8-point dose curve in fresh serum-free medium to a final concentration of 0.3% DMSO (vehicle) and added to the cells and incubated for 1 h. Cells were then immediately lysed with 150 μL of cold 1× lysis buffer [20 mM Tris, 137 mM sodium chloride, 2 mM EDTA, 10% glycerol, 1% NP-40 alternative, 1 mM activated sodium orthovanadate, 1 mM PefaBloc SC (Sigma-Aldrich #11429868001), protease/phosphatase inhibitor tablet (Thermo Fisher #A32959)]. Lysates were clarified by centrifugation and 50 μL/well added into the human phospho-Mer DuoSet IC ELISA (R&D Systems #DYC2579-2). Assay was performed according to manufacturer's instructions and sample phospho-Mer concentrations were extrapolated using human phospho-Mer control (R&D Systems #841793) as a standard. Positive control wells (100% activity) contained DMSO-treated cell lysates. Negative control wells (0% activity) contained reference inhibitor-treated cell lysates. IC50 values were calculated by nonlinear regression analysis using a 4-parameter logistic curve fit in ActivityBase XE (IDBS).
As for `O=C(Nc1ccc(F)cc1)C1(C(=O)Nc2ccc(Oc3ccnc4cc(-c5nnco5)ccc34)cc2)CC1` [Compound 73, 1-N′-(4-Fluorophenyl)-1-N-[4-[7-(1,3,4-oxadiazol-2-yl)quinolin-4-yl]oxyphenyl]cyclopropane-1,1-dicarboxamide], the IC50 was in the range of 10 to 100 nM.

`Cc1cc(-c2ccc3c(Oc4ccc(NC(=O)C5(C(=O)Nc6ccc(F)cc6)CC5)cc4)ccnc3c2)ccn1` [Compound 30, 1-N′-(4-Fluorophenyl)-1-N-[4-[7-(2-methylpyridin-4-yl)quinolin-4-yl]oxyphenyl]cyclopropane-1,1-dicarboxamide] registered a half-inhibitory concentration (IC50) of 10 to 100 nM.

On to `N#Cc1cncc(-c2ccc3c(Oc4ccc(NC(=O)C5(C(=O)Nc6ccc(F)cc6)CC5)cc4)ccnc3c2)c1` [Compound 40, 1-N-[4-[7-(5-Cyanopyridin-3-yl)quinolin-4-yl]oxyphenyl]-1-N′-(4-fluorophenyl)cyclopropane-1,1-dicarboxamide], for which the IC50 is 10 to 100 nM.

`O=C(Nc1ccc(F)cc1)C1(C(=O)Nc2ccc(Oc3ccnc4cc(C5CCNC5)ccc34)cc2)CC1` (stereo not drawn) [Compound 83, 1-N′-(4-Fluorophenyl)-1-N-[4-(7-pyrrolidin-3-ylquinolin-4-yl)oxyphenyl]cyclopropane-1,1-dicarboxamide] registered an IC50 of 100 to 300 nM.

In turn, `O=C(Nc1ccc(F)cc1)C1(C(=O)Nc2ccc(Oc3ccnc4cc(-c5ccc(O)nc5)ccc34)cc2)CC1` [Compound 51, 1-N′-(4-Fluorophenyl)-1-N-[4-[7-(6-hydroxypyridin-3-yl)quinolin-4-yl]oxyphenyl]cyclopropane-1,1-dicarboxamide] yielded an IC50 of 10 to 100 nM.

In turn, `O=C(Nc1ccc(F)cc1)C1(C(=O)Nc2ccc(Oc3ccnc4cc(-c5cnn6c5CCC6)ccc34)cc2)CC1` [Compound 29, 1-N-[4-[7-(5,6-Dihydro-4H-pyrrolo[1,2-b]pyrazol-3-yl)quinolin-4-yl]oxyphenyl]-1-N′-(4-fluorophenyl)cyclopropane-1,1-dicarboxamide] showed an IC50 of 10 to 100 nM.

In turn, `O=C(Nc1ccc(F)cc1)C1(C(=O)Nc2ccc(Oc3ccnc4cc(-c5cnn(C(F)F)c5)ccc34)c(F)c2)CC1` [Compound 123, 1-N′-[4-[7-[1-(Difluoromethyl)pyrazol-4-yl]quinolin-4-yl]oxy-3-fluorophenyl]-1-N-(4-fluorophenyl)cyclopropane-1,1-dicarboxamide] had an IC50 of 10 to 100 nM.

Turning to `Cn1ccnc1-c1ccc2c(Oc3ccc(NC(=O)C4(C(=O)Nc5ccc(F)cc5)CC4)cc3)ccnc2c1` [Compound 75, 1-N′-(4-Fluorophenyl)-1-N-[4-[7-(1-methylimidazol-2-yl)quinolin-4-yl]oxyphenyl]cyclopropane-1,1-dicarboxamide], the half-maximal inhibitory concentration (IC50) was in the range of 10 to 100 nM.

For the compound `O=C(Nc1ccc(F)cc1)C1(C(=O)Nc2ccc(Oc3ccnc4cc(-c5ccc[n+]([O-])c5)ccc34)cc2)CC1` [Compound 109, 1-N′-(4-Fluorophenyl)-1-N-[4-[7-(1-oxidopyridin-1-ium-3-yl)quinolin-4-yl]oxyphenyl]cyclopropane-1,1-dicarboxamide], the IC50 was 10 to 100 nM.

`O=C(Nc1ccc(F)cc1)C1(C(=O)Nc2cc(F)c(Oc3ccnc4cc(-c5cccnc5)ccc34)cc2F)CC1` [Compound 115, 1-N′-[2,5-Difluoro-4-(7-pyridin-3-ylquinolin-4-yl)oxyphenyl]-1-N-(4-fluorophenyl)cyclopropane-1,1-dicarboxamide] showed an IC50 of 10 to 100 nM.

For the compound `O=C(Nc1ccc(F)cc1)C1(C(=O)Nc2ccc(Oc3ccnc4cc(-c5cn[nH]c5)ccc34)cc2)CC1` [Compound 67, 1-N′-(4-Fluorophenyl)-1-N-[4-[7-(1H-pyrazol-4-yl)quinolin-4-yl]oxyphenyl]cyclopropane-1,1-dicarboxamide], the IC50 was not above 10 nM.

Turning to `Cn1cc(-c2ccc3c(Oc4ccc(NC(=O)C5(C(=O)Nc6ccc(F)cc6)CC5)cc4)ccnc3c2)ccc1=O` [Compound 119, 1-N′-(4-Fluorophenyl)-1-N-[4-[7-(1-methyl-6-oxopyridin-3-yl)quinolin-4-yl]oxyphenyl]cyclopropane-1,1-dicarboxamide], the IC50 was 10 to 100 nM.

For the compound `COc1cc(-c2ccc3c(Oc4ccc(NC(=O)C5(C(=O)Nc6ccc(F)cc6)CC5)cc4)ccnc3c2)ccn1` [Compound 31, 1-N′-(4-Fluorophenyl)-1-N-[4-[7-(2-methoxypyridin-4-yl)quinolin-4-yl]oxyphenyl]cyclopropane-1,1-dicarboxamide], the half-maximal inhibitory concentration (IC50) fell in the range of 10 to 100 nM.

The compound `Cn1cnc(-c2ccc3c(Oc4ccc(NC(=O)C5(C(=O)Nc6ccc(F)cc6)CC5)cc4)ccnc3c2)c1` [Compound 69, 1-N′-(4-Fluorophenyl)-1-N-[4-[7-(1-methylimidazol-4-yl)quinolin-4-yl]oxyphenyl]cyclopropane-1,1-dicarboxamide] showed an IC50 of 10 to 100 nM.

`Cc1cc2c(Oc3cc(Cl)c(NC(=O)C4(C(=O)Nc5ccc(F)cc5)CC4)cc3F)ccnc2cc1-c1cnn(C)c1` [Compound 112, 1-N′-[2-Chloro-5-fluoro-4-[6-methyl-7-(1-methylpyrazol-4-yl)quinolin-4-yl]oxyphenyl]-1-N-(4-fluorophenyl)cyclopropane-1,1-dicarboxamide] had an IC50 of 10 to 100 nM.

`O=C(Nc1ccc(F)cc1)C1(C(=O)Nc2ccc(Oc3ccnc4cc(-c5cnc[nH]5)ccc34)cc2)CC1` [Compound 72, 1-N′-(4-Fluorophenyl)-1-N-[4-[7-(1H-imidazol-5-yl)quinolin-4-yl]oxyphenyl]cyclopropane-1,1-dicarboxamide] yielded an IC50 not above 10 nM.

`O=C(Nc1ccc(F)cc1)C1(C(=O)Nc2ccc(Oc3ccnc4cc(-c5ccn(C(F)F)n5)ccc34)cc2)CC1` [Compound 84, 1-N-[4-[7-[1-(Difluoromethyl)pyrazol-3-yl]quinolin-4-yl]oxyphenyl]-1-N′-(4-fluorophenyl)cyclopropane-1,1-dicarboxamide] had an IC50 of 10 to 100 nM.

With `O=C(Nc1ccc(F)cc1)C1(C(=O)Nc2ccc(Oc3ccnc4cc(-c5cnn(C6COC6)c5)ccc34)cc2)CC1` [Compound 24, 1-N′-(4-Fluorophenyl)-1-N-[4-[7-[1-(oxetan-3-yl)pyrazol-4-yl]quinolin-4-yl]oxyphenyl]cyclopropane-1,1-dicarboxamide], the IC50 was not above 10 nM.

For the compound `Cc1cncc(-c2ccc3c(Oc4ccc(NC(=O)C5(C(=O)Nc6ccc(F)cc6)CC5)cc4)ccnc3c2)c1` [Compound 46, 1-N′-(4-Fluorophenyl)-1-N-[4-[7-(5-methylpyridin-3-yl)quinolin-4-yl]oxyphenyl]cyclopropane-1,1-dicarboxamide], the IC50 lay within 100 to 300 nM.

`N#Cc1ccc(-c2ccc3c(Oc4ccc(NC(=O)C5(C(=O)Nc6ccc(F)cc6)CC5)cc4)ccnc3c2)cn1` [Compound 42, 1-N-[4-[7-(6-Cyanopyridin-3-yl)quinolin-4-yl]oxyphenyl]-1-N′-(4-fluorophenyl)cyclopropane-1,1-dicarboxamide]: the IC50 lay in the range of 10 to 100 nM.

The compound `Cc1cc2c(Oc3c(F)cc(NC(=O)C4(C(=O)Nc5ccc(F)cc5)CC4)c(F)c3F)ccnc2cc1-c1cnn(C)c1` [Compound 110, 1-N-(4-Fluorophenyl)-1-N′-[2,3,5-trifluoro-4-[6-methyl-7-(1-methylpyrazol-4-yl)quinolin-4-yl]oxyphenyl]cyclopropane-1,1-dicarboxamide] returned a concentration for half-maximal inhibition (IC50) of 10 to 100 nM.
